One assay relates to paw plantar skin of rats. The experiment in a line: Rat models with hand-foot skin reaction, topical ointment (Example 22). Format: in vivo, SD rats. The conditions noted are these: for Incidence rate: 30 days; for incidence rate of hand-foot skin reaction at a drug application site: compounds at a mass content of 1% in ointment; for incidence rate of hand-foot skin reaction in all paws of the rats: compounds at mass contents of 3% and 10% in ointment; for formation of blisters, inflammatory cell infiltration in the dermis and skin congestion (pathological scoring): paw plantar skin of modeled rats; for formation of blisters, inflammatory cell infiltration in the dermis and skin congestion (pathological scoring) / stratum corneum thickness of the paw plantar skin of the modeled rats: topical ointment; for differentiation of keratinocytes both in vitro and in vivo: summary of Examples 21 and 22. The method, then:
After adaptive feeding for one week, SD rats (with a body weight of approximately 200 g) were randomly divided into groups according to the body weight, with 12 rats in each group. Modeling drugs (including sorafenib, erlotinib, afatinib, and osimertinib) were respectively dissolved in a solution containing 5% of DMSO, 45% of PEG400, and 50% of H2O, and the modeling drugs were diluted to required concentrations and then administered once daily by gavage at doses shown in Table 3. After administration by gavage for 1 hour, 0.05 g of ointments containing different mass proportions of test compounds were evenly applied to left paws of the rats, a blank matrix ointment was applied to right paws of the rats to serve as a self-control, and no ointment was applied to the rats in a blank control group. After drug application, four limbs were continuously immobilized for 2 hours, then wiped with clean water to remove the residual drugs, removed from immobilization, and restored to free movement. The modeling drugs, the blank matrix ointment, and the ointments containing the test compounds were all administered once daily. After continuous administration for 30 days, the rats were euthanized, and paw plantar skin tissues were collected, fixed in 10% neutral formalin, […]. The ointments for the test compounds were prepared by mixing the compounds, white beeswax, white petrolatum, and light liquid paraffin in specific ratios (weight ratios of 3 ointments were respectively 1:18:58:23, 3:18:57:22, and 10:20:40:30). The blank matrix ointment was prepared by mixing white beeswax, white petrolatum, and light liquid paraffin in a specific ratio (weight ratio of 18:60:22).
Tissue staining: After dewaxing and rehydration, the paw plantar skin tissue sections of the above rats were stained in a hematoxylin solution for several minutes, cleaned, and placed in 1% acid alcohol for soaking until the sections faded to light blue-red. After cleaning with running water for 5 minutes, the sections were stained with eosin for 2-3 minutes, cleaned to remove excess dyes, dehydrated, then permeabilized by adding xylene for several minutes, and sealed and fixed with a neutral resin. The stratum corneum was observed under an optical microscope, and the thickness of the epidermal stratum corneum was measured using Dmetrix software.
Immunohistochemical staining: After dewaxing and hydration, the paw plantar skin tissue sections of the above rats were incubated with 3% H2O2 at room temperature for 30 minutes and blocked with 10% goat serum for 30 minutes after antigen retrieval. A KRT1 antibody (Abcam, ab93652) and a Loricrin antibody (Abcam, ab183646) were added dropwise, the sections were incubated overnight at 4° C., and an HRP secondary antibody (ZSGB-BIO, PV-6001) and a DAB kit (ZSG-BIO, ZLI9017) were added for color development. The sections were re-stained with hematoxylin, cleaned, and sealed and fixed with a neutral resin, and the expression amounts of KRT1 and Loricrin were observed under an optical microscope.
An incidence rate calculation method involves a proportion of animals in each group meeting the above criteria for determining successful modeling, that is, incidence rate=(number of successfully modeled rats/total number of rats in the group)*100%. […]

The next assay relates to HaCat cells. Briefly: m6A methylation level of human HaCat keratinocytes, EpiQuik m6A RNA methylation quantification kit (Example 20). To be noted: for abnormal increase in the RNA m6A level of human keratinocytes caused by chemotherapeutic drugs and multikinase inhibitors: 400 nM compound after 50 nM drug; for m6A fold change relative to control group 1: HaCat cells, 24 hours. The class given is cell-based. The method, then: HaCat cells were cultured in a DMEM culture medium containing 10% fetal bovine serum, 100 U/mL penicillin, and 100 μg/mL streptomycin. Culture dishes were placed in an incubator containing 5% CO2 for culture at 37° C. for 24 hours. An equal volume of DMSO was added in control group 1, 50 nM sorafenib, capecitabine, docetaxel, and osimertinib were respectively added in control groups A, B, C, and D, and 400 nM test compounds or nicotinamide were respectively added in sample groups A1-17, B1-17, C1-17, and D1-17 after the addition of 50 nM corresponding compounds. The cells were continuously cultured for 24 hours, washed with PBS, and then collected by high-speed centrifugation. Total RNA was extracted using a Trizol reagent (Sigma Aldrich), and RNA m6A methylation of a sample was quantitatively detected using an EpiQuik m6A RNA methylation quantification kit. The concentrations of positive control samples for a standard curve were 0.01 ng/μl, 0.02 ng/μl, 0.05 ng/μl, 0.1 ng/μl, 0.2 ng/μl, and 0.5 ng/μl. The absorbance at 450 nm was read using a microplate reader (Tecan GENios). A quantitative calculation formula for m6A is as follows:
m6A (ng)=(absorbance of sample well−absorbance of background well)/slope of standard curve m6A (%)=m6A (ng)/RNA amount of sample (ng)*100%.

The mark [1] stands for this setting: afatinib 50 mg/kg, 1% compound ointment on left paw, left paw.
[2] abbreviates: afatinib 50 mg/kg, 1% compound ointment on left paw, right paw (blank matrix ointment).
Setting [3] is: afatinib 50 mg/kg, 3% compound ointment on left paw, left paw.
Setting [4] is: afatinib 50 mg/kg, 3% compound ointment on left paw, right paw (blank matrix ointment).
[5] abbreviates: afatinib 50 mg/kg, 10% compound ointment on left paw, left paw.
Setting [6] is: afatinib 50 mg/kg, 10% compound ointment on left paw, right paw (blank matrix ointment).
Setting [7] is: erlotinib 70 mg/kg, 1% compound ointment on left paw, left paw.
Setting [8] is: erlotinib 70 mg/kg, 1% compound ointment on left paw, right paw (blank matrix ointment).
[9] abbreviates: erlotinib 70 mg/kg, 3% compound ointment on left paw, left paw.
The mark [10] stands for this setting: erlotinib 70 mg/kg, 3% compound ointment on left paw, right paw (blank matrix ointment).
The mark [11] stands for this setting: erlotinib 70 mg/kg, 10% compound ointment on left paw, left paw.
Where [12] appears, read: erlotinib 70 mg/kg, 10% compound ointment on left paw, right paw (blank matrix ointment).
Where [13] appears, read: osimertinib 60 mg/kg, 1% compound ointment on left paw, left paw.
[14] abbreviates: osimertinib 60 mg/kg, 1% compound ointment on left paw, right paw (blank matrix ointment).
[15] abbreviates: osimertinib 60 mg/kg, 3% compound ointment on left paw, right paw (blank matrix ointment).
[16] abbreviates: osimertinib 60 mg/kg, 10% compound ointment on left paw, left paw.
Setting [17] is: osimertinib 60 mg/kg, 10% compound ointment on left paw, right paw (blank matrix ointment).
Where [18] appears, read: sorafenib 100 mg/kg, 1% compound ointment on left paw, left paw.
The mark [19] stands for this setting: sorafenib 100 mg/kg, 1% compound ointment on left paw, right paw (blank matrix ointment).
Setting [20] is: sorafenib 100 mg/kg, 3% compound ointment on left paw, left paw.
The mark [21] stands for this setting: sorafenib 100 mg/kg, 3% compound ointment on left paw, right paw (blank matrix ointment).
Where [22] appears, read: sorafenib 100 mg/kg, 10% compound ointment on left paw, left paw.
Where [23] appears, read: sorafenib 100 mg/kg, 10% compound ointment on left paw, right paw (blank matrix ointment).
[24] abbreviates: 50 nM capecitabine + 400 nM test compound.
The mark [25] stands for this setting: 50 nM docetaxel + 400 nM test compound.
Setting [26] is: 50 nM osimertinib + 400 nM test compound.
[27] abbreviates: 50 nM sorafenib + 400 nM test compound.

For `NC(=O)C1CCCc2c1[nH]c1ccc(Cl)cc21` (centres unmarked) [Compound 2, 6-chloro-2,3,4,9-tetrahydro-1H-carbazole-1-carboxamide], the Incidence rate was 2/12 (17%) in the assay with paw plantar skin of rats (setting [1]); 7/12 (58%) in the assay on paw plantar skin of rats (setting [2]); 2/12 (17%) with paw plantar skin of rats (setting [3]); 5/12 (42%) with paw plantar skin of rats (setting [4]); 1/12 (8%) in the assay with paw plantar skin of rats (setting [5]); 5/12 (42%) with paw plantar skin of rats (setting [6]). Moreover, the Incidence rate in the assay on paw plantar skin of rats (setting [7]) is given as 3/12 (25%); in the assay with paw plantar skin of rats (setting [8]), 10/12 (83%); with paw plantar skin of rats (setting [9]), 2/12 (17%); in the assay on paw plantar skin of rats (setting [10]), 4/12 (33%); with paw plantar skin of rats (setting [11]), 1/12 (8%); in the assay with paw plantar skin of rats (setting [12]) it was 4/12 (33%). The Incidence rate in the assay with paw plantar skin of rats (setting [13]) was 2/12 (17%); in the assay on paw plantar skin of rats (setting [14]), 9/12 (75%); in the assay on paw plantar skin of rats (setting [15]), 4/12 (33%); with paw plantar skin of rats (setting [16]), 0/12 (0%); in the assay with paw plantar skin of rats (setting [17]), 3/12 (25%); with paw plantar skin of rats (setting [18]), 3/12 (25%). Moreover, the Incidence rate is reported as 8/12 (67%) in the assay on paw plantar skin of rats (setting [19]); 1/12 (8%) in the assay on paw plantar skin of rats (setting [20]); 5/12 (42%) in the assay with paw plantar skin of rats (setting [21]); 0/12 (0%) in the assay with paw plantar skin of rats (setting [22]); 5/12 (42%) in the assay with paw plantar skin of rats (setting [23]). Also, in the assay on paw plantar skin of rats, the “incidence rate of hand-foot skin reaction at a drug application site” value is given as “significantly decrease”. Moreover, the “incidence rate of hand-foot skin reaction in all paws of the rats” value with paw plantar skin of rats is reported as “significantly decrease”. In the assay on paw plantar skin of rats, the “formation of blisters, inflammatory cell infiltration in the dermis and skin congestion (pathological scoring)” value is on record as “effectively improve”. The “differentiation of keratinocytes both in vitro and in vivo” value in the assay on paw plantar skin of rats is given as “effectively inhibit”. Further, in the assay with paw plantar skin of rats, the “stratum corneum thickness of the paw plantar skin of the modeled rats” value is reported as “effectively decrease”. Moreover, the “abnormal increase in the RNA m6A level of human keratinocytes caused by chemotherapeutic drugs and multikinase inhibitors” value in the assay on HaCat cells is on record as “effectively inhibit”. Further, the “m6A fold change relative to control group 1” value turned out to be 2.3 in the assay with HaCat cells (setting [24]), 3.3 in the assay with HaCat cells (setting [25]), 2.2 in the assay with HaCat cells (setting [26]) and 2.4 with HaCat cells (setting [27]).

Take `NC(=O)c1cccnc1` [Nicotinamide, nicotinamide]: the “m6A fold change relative to control group 1” value worked out at 4.5 in the assay with HaCat cells (setting [24]), 5.4 in the assay with HaCat cells (setting [25]), 5.0 in the assay with HaCat cells (setting [26]) and 4.7 in the assay on HaCat cells (setting [27]).

With `CN1CC[C@H](C(N)=O)c2[nH]c3ccc(Cl)cc3c21` [Compound 8b, (S)-8-chloro-1-methyl-2,3,4,5-tetrahydropyrido[3,2-b]indole-4-carboxamide], the Incidence rate with paw plantar skin of rats (setting [1]) is recorded as 1/12 (8%); in the assay with paw plantar skin of rats (setting [2]), 9/12 (75%); in the assay on paw plantar skin of rats (setting [3]), 1/12 (8%); in the assay on paw plantar skin of rats (setting [4]), 4/12 (33%); in the assay on paw plantar skin of rats (setting [5]) it was 0/12 (0%); with paw plantar skin of rats (setting [6]) it was 1/12 (8%). The Incidence rate in the assay with paw plantar skin of rats (setting [7]) is listed as 2/12 (17%); with paw plantar skin of rats (setting [8]) it was 10/12 (83%); in the assay with paw plantar skin of rats (setting [9]), 1/12 (8%); in the assay on paw plantar skin of rats (setting [10]) it was 4/12 (33%); with paw plantar skin of rats (setting [11]), 0/12 (0%); with paw plantar skin of rats (setting [12]) it was 0/12 (0%). Besides, the Incidence rate in the assay on paw plantar skin of rats (setting [13]) is 1/12 (8%); with paw plantar skin of rats (setting [14]), 9/12 (75%); in the assay with paw plantar skin of rats (osimertinib 60 mg/kg, 3% compound ointment on left paw, left paw) it was 1/12 (8%); with paw plantar skin of rats (setting [15]), 3/12 (25%); in the assay on paw plantar skin of rats (setting [16]) it was 0/12 (0%); in the assay with paw plantar skin of rats (setting [17]) it was 0/12 (0%). For the same molecule, the Incidence rate is reported as 1/12 (8%) in the assay with paw plantar skin of rats (setting [18]); 8/12 (67%) with paw plantar skin of rats (setting [19]); 1/12 (8%) with paw plantar skin of rats (setting [20]); 3/12 (25%) in the assay with paw plantar skin of rats (setting [21]); 0/12 (0%) with paw plantar skin of rats (setting [22]); 1/12 (8%) in the assay on paw plantar skin of rats (setting [23]). In the assay on paw plantar skin of rats, the “incidence rate of hand-foot skin reaction at a drug application site” value is on record as “significantly decrease”. For the same molecule, the “incidence rate of hand-foot skin reaction in all paws of the rats” value in the assay on paw plantar skin of rats is recorded as “significantly decrease”. For the same molecule, the “formation of blisters, inflammatory cell infiltration in the dermis and skin congestion (pathological scoring)” value in the assay with paw plantar skin of rats is on record as “effectively improve”. For the same molecule, in the assay on paw plantar skin of rats, the “differentiation of keratinocytes both in vitro and in vivo” value is recorded as “effectively inhibit”. Also, in the assay on paw plantar skin of rats, the “stratum corneum thickness of the paw plantar skin of the modeled rats” value was “effectively decrease”. In the assay on HaCat cells, the “abnormal increase in the RNA m6A level of human keratinocytes caused by chemotherapeutic drugs and multikinase inhibitors” value is reported as “effectively inhibit”. Further, the “m6A fold change relative to control group 1” value in the assay with HaCat cells (setting [24]) is reported as 1.0; in the assay on HaCat cells (setting [25]), 1.2; in the assay with HaCat cells (setting [26]), 1.0; in the assay with HaCat cells (setting [27]) it was 1.0.

For the origin of these results see patent US20260226006A1, “INDOLE COMPOUND, PREPARATION METHOD THEREFOR AND USE THEREOF” (SUZHOU MERNA THERAPEUTICS CO. LTD, priority 2023, published 2026).
